The values that follow come from publication PMC9892271 (Journal of medicinal chemistry, 2023).

Structures are written as SMILES. Read-outs that look alike come from different tables or passages of the source. Bounds are passed on as bounds.

One test concerns the target T1, NTMT1 (Homo sapiens, UniProt Q9BV86).
T1 sequence (Q9BV86 1-222): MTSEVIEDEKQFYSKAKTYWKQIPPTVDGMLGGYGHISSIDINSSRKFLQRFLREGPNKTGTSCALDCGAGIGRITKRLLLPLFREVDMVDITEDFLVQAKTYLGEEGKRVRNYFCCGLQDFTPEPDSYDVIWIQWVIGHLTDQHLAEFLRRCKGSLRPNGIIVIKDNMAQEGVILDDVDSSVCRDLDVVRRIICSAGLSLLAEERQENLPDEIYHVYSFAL

Another test has as its target T2, G9a (Homo sapiens, UniProt Q96KQ7).
T2 sequence (Q96KQ7 1-1210): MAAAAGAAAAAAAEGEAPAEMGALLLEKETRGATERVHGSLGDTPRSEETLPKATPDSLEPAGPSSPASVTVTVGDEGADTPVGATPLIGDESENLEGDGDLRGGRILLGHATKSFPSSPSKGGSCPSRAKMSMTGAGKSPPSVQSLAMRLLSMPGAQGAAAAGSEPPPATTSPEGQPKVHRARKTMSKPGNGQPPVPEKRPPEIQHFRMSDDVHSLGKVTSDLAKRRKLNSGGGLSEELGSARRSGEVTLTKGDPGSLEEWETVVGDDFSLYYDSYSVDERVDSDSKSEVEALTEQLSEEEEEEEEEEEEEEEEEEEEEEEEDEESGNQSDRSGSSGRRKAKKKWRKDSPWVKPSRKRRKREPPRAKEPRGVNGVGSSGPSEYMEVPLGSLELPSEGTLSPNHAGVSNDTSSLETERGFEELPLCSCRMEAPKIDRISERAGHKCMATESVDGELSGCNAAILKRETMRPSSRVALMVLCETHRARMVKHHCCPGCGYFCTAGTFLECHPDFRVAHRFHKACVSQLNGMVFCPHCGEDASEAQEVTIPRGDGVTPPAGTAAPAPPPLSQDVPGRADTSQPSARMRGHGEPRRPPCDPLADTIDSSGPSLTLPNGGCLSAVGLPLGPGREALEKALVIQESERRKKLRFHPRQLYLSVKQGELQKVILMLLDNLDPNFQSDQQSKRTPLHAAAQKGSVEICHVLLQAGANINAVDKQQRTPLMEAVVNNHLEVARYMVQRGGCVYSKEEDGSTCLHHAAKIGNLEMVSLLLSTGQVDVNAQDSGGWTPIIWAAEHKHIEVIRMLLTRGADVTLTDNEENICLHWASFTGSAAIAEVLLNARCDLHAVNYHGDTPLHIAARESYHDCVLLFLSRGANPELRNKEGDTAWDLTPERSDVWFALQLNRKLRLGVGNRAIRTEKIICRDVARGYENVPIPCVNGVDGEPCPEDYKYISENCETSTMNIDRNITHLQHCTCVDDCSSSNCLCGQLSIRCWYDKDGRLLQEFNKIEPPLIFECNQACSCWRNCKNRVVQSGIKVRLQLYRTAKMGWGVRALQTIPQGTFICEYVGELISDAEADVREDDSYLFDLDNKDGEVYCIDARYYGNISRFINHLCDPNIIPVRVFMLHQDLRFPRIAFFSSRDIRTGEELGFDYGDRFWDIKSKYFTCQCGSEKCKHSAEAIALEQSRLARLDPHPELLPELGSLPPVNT
The test is described as follows: SAHH-coupled selectivity assay, G9a. The test is classed as biochemical.

The target in another test is PRMT1 (Homo sapiens, UniProt Q99873). The test is described as follows: SAHH-coupled selectivity assay, PRMT1. The test is classed as biochemical.
The target of another test is TbPRMT7 (Trypanosoma brucei brucei, UniProt Q582G4). In words: SAHH-coupled selectivity assay, PRMT7. The test is classed as biochemical.
The target of the next test is T3, NNMT (Homo sapiens, UniProt P40261).
T3 sequence (P40261 1-264): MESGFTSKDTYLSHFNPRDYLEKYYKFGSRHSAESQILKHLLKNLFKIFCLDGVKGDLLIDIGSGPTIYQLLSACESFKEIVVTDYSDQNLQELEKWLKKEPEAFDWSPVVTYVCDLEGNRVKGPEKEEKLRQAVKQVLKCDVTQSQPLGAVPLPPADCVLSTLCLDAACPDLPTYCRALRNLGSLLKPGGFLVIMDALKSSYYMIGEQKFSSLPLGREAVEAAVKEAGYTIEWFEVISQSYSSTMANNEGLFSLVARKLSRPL
In words: SAHH-coupled selectivity assay, NNMT. The test is classed as biochemical.

Another test deals with T4, SETD7 (Homo sapiens, UniProt Q8WTS6).
T4 sequence (Q8WTS6 1-366): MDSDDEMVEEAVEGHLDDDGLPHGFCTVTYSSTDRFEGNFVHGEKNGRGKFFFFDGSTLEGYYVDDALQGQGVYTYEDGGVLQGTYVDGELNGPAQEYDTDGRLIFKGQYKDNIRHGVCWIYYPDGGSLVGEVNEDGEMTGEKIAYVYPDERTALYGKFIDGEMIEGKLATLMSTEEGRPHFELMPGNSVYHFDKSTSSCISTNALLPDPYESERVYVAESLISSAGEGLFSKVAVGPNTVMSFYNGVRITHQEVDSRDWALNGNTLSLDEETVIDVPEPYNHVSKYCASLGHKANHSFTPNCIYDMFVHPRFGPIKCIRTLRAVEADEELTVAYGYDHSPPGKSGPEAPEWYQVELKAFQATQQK
In words: SAHH-coupled selectivity assay, SETD7. The test is classed as biochemical.

The next test has as its target SAHH (Homo sapiens, UniProt P23526). The test is described as follows: selectivity assay, coupling enzyme SAHH. The test is classed as biochemical.
For another test, the target named is NTMT2 (Homo sapiens, UniProt Q5VVY1). In words: SAM-dependent methyltransferase panel. Particulars: single dose of 50 μM. The test is classed as biochemical.
For the next test, the target named is MLL1 complex (Homo sapiens, UniProt Q03164). The test is described as follows: SAM-dependent methyltransferase panel. The test is classed as biochemical. The note with it: single dose of 50 μM.
The subject of test [1] is me3-RCC1 and me3-SET in HEK293 cells. The test is described as follows: cellular N-methylation level study. The test is classed as cell-based.
A further test deals with T5, GCS (Homo sapiens, UniProt Q16739).
T5 sequence (Q16739 1-394): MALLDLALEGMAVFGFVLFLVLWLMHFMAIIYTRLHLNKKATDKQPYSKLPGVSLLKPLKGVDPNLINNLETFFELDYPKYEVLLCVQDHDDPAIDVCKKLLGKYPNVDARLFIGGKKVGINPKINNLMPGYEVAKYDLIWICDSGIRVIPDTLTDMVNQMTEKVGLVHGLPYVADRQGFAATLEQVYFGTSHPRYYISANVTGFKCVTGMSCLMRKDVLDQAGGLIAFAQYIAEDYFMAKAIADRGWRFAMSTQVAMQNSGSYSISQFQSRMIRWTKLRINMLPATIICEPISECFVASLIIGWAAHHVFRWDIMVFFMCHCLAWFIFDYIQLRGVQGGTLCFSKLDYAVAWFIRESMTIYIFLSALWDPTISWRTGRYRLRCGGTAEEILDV
The test is classed as cell-based. Particulars: 30 nM, HCT116 cells.

For test [2], the system named is me3-RCC1 and me3-SET in HEK293 cells. Particulars: cited from earlier work.

SAHH, sequence (P23526 whole entry, species assumed): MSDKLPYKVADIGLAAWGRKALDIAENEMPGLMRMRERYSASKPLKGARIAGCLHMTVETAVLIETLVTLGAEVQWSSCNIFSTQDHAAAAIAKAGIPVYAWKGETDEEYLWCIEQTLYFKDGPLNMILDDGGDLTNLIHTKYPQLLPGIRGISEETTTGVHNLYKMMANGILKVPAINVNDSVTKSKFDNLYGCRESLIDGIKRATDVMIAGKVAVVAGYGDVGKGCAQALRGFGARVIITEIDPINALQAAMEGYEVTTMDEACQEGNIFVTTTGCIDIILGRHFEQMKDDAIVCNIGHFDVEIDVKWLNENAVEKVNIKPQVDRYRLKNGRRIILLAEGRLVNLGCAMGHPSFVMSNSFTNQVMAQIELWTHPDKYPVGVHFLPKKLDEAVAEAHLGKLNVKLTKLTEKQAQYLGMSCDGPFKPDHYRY
TbPRMT7, sequence (Q582G4 whole entry): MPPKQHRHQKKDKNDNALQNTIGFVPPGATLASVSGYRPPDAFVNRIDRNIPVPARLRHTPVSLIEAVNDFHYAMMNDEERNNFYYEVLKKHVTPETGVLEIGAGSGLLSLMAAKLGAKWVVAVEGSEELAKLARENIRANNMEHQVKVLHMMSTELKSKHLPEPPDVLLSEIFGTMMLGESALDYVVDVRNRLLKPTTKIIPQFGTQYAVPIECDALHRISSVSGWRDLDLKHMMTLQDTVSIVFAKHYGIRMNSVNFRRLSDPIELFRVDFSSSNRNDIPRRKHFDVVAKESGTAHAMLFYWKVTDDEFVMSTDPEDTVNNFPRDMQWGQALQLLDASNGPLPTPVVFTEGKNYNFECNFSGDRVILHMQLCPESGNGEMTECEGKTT
PRMT1, sequence (Q99873 whole entry, species assumed): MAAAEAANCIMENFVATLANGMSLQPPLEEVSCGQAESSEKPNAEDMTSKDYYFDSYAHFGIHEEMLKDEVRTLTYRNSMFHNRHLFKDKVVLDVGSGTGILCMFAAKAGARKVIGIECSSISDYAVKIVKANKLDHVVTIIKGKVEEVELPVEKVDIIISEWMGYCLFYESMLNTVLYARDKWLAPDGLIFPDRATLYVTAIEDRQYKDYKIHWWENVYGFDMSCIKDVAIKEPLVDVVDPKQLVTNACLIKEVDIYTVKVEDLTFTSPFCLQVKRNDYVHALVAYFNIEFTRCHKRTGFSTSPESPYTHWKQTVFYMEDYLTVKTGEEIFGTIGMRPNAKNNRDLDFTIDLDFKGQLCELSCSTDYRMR
NTMT2, sequence (Q5VVY1 whole entry): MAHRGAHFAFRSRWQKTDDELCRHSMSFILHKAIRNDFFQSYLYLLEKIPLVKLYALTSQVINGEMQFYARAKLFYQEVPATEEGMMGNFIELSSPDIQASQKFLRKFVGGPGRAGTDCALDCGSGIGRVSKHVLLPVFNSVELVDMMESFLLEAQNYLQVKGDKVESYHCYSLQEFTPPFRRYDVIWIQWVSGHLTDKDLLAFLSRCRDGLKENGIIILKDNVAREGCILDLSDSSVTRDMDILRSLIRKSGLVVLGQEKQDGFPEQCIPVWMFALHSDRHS
MLL1 complex, sequence (Q9C005 whole entry): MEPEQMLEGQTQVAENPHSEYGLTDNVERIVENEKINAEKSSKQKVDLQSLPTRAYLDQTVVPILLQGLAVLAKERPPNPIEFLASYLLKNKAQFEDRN
MLL1 complex, sequence (Q03164 3745-3969): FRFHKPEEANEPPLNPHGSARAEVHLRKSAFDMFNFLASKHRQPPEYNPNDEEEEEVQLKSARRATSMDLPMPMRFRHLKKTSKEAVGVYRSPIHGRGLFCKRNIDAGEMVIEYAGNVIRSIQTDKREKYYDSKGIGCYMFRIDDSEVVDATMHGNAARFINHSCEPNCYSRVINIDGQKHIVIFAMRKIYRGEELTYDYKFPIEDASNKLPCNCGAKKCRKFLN
MLL1 complex, sequence (Q15291 whole entry, further chain): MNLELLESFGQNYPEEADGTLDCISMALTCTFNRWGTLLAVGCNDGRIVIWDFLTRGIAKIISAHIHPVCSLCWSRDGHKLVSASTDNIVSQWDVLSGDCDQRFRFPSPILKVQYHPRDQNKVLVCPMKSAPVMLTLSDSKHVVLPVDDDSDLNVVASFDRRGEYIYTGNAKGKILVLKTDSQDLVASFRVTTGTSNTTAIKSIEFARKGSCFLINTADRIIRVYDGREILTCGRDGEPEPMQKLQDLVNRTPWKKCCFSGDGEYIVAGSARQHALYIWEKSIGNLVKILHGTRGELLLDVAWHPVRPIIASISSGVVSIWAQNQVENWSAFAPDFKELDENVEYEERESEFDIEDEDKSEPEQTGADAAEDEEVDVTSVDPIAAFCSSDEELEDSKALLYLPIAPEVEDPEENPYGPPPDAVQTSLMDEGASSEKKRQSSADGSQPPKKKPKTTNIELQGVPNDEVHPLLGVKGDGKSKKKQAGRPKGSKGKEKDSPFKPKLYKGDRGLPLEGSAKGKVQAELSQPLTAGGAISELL
MLL1 complex, sequence (Q9UBL3 96-628, further chain): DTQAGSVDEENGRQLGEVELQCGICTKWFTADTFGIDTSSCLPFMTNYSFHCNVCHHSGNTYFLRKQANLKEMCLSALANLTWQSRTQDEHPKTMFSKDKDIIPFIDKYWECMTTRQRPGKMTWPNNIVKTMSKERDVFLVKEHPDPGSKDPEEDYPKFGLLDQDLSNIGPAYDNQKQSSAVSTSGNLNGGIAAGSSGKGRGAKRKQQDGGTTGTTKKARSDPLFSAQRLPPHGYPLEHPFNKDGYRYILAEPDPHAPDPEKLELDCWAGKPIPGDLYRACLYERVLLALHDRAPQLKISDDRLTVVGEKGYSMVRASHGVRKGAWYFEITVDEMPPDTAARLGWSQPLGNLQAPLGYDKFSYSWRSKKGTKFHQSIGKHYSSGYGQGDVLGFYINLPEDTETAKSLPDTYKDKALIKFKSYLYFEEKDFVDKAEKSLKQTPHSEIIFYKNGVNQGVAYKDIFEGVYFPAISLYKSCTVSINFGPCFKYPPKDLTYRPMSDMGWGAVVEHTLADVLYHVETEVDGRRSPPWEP

With `CC(C)(NC(=O)Oc1cccnc1)c1csc(-c2ccc(F)cc2)n1` [Compound 8, Pyridin-3-yl (2-(2-(4-Fluorophenyl)thiazol-4-yl)propan-2-yl)carbamate], the “NTMT1 inhibition (in words)” value at NTMT1 was “null activity”.
Consider `CC(C)(NC(=O)N[C@@H]1CN2CCC1CC2)c1csc(-c2ccc(F)cc2)n1` [Compound 9, 1-(2-(2-(4-Fluorophenyl)thiazol-4-yl)propan-2-yl)-3-(quinuclidin-3-yl)urea], for which the “fold loss of potency compared to venglustat” value on NTMT1 (NTMT1 IC50) is listed as above 100 fold.
`CC(C)(NC(=O)O[C@@H]1CN2CCC1CC2)c1csc(-c2ccc(F)c(O)c2)n1` [GD433]: the inhibition result at G9a (10 μM) was “no significant inhibition”; against G9a (30 μM), “no significant inhibition”; against G9a (100 μM), “did not exhibit inhibition”; against PRMT1 (10 μM), “no significant inhibition”; against PRMT1 (30 μM) it was “no significant inhibition”; against PRMT1 (100 μM) it was 50%. In addition, the inhibition entry on TbPRMT7 (10 μM) is “no significant inhibition”; on TbPRMT7 (30 μM), “no significant inhibition”; against TbPRMT7 (100 μM) it was “did not exhibit inhibition”; against NNMT (10 μM), “no significant inhibition”; at NNMT (30 μM) it was “no significant inhibition”; at NNMT (100 μM) it was “did not exhibit inhibition”. Further, the inhibition entry on SETD7 (10 μM) is “no significant inhibition”; against SETD7 (30 μM), “no significant inhibition”; on SETD7 (100 μM) it was “did not exhibit inhibition”; against SAHH (10 μM) it was “no significant inhibition”; against SAHH (30 μM), “no significant inhibition”; at SAHH (100 μM), “did not exhibit inhibition”. Further, the inhibition result at NTMT2 is listed as “potently inhibited”; at MLL1 complex it was ~ 25%.
With `CC(C)(C(=O)N[C@@H]1CN2CCC1CC2)c1csc(-c2ccc(F)cc2)n1` [Compound 10, 2-(2-(4-Fluorophenyl)thiazol-4-yl)-2-methyl-N-(quinuclidin-3-yl)propenamide], the “NTMT1 inhibition (in words)” value on NTMT1 is “did not show any inhibition”.
On to `CCCN1CCC[C@H](OC(=O)NC(C)(C)c2csc(-c3ccc(F)cc3)n2)C1` [Compound 6, (S)-1-propylpiperidin-3-yl (2-(2-(4-Fluorophenyl)thiazol-4-yl)propan-2-yl)carbamate], for which the “fold loss of potency compared to venglustat” value at NTMT1 (NTMT1 IC50) is “over 40 fold”.
Same read-out and setting: for `CN1CCC[C@H](OC(=O)NC(C)(C)c2csc(-c3ccc(F)cc3)n2)C1` [Compound 5, (S)-1-methylpiperidin-3-yl (2-(2-(4-Fluorophenyl)thiazol-4-yl)propan-2-yl)carbamate] the value was “over 40 fold”.
As to `CC(C)(NC(=O)O[C@@H]1CN2CCC1CC2)c1csc(-c2ccc(Cl)c(O)c2)n1` [YD2200], in test [1] (1 μM), the “effect on me3-RCC1 and me3-SET” value is reported as “significantly reduces”. Besides, the IC50 in [1] (read-out: approximate IC50, me3-RCC1 and me3-SET) was around 300 nM.
In the case of `CC(C)(NC(=O)OCCN1CCCCC1)c1csc(-c2ccc(F)cc2)n1` [Compound 7, 2-(Piperidin-1-yl)ethyl (2-(2-(4-Fluorophenyl)thiazol-4-yl)propan-2-yl)carbamate], the “fold reduction compared to 6” value on NTMT1 (NTMT1 IC50) was above 5 fold.
As to `CC(C)(NC(=O)O[C@@H]1CN2CCC1CC2)c1csc(-c2cncnc2)n1` [YD2160], the “change in me3-RCC1 or me3-SET” value in test [1] (up to 30 μM) is “did not induce any change”.
Turning to `CC(C)(NC(=O)O[C@@H]1CN2CCC1CC2)c1csc(-c2ccc(F)cc2)n1` [venglustat, (S)-quinuclidin-3-yl (2-(2-(4-Fluorophenyl)thiazol-4-yl)propan-2-yl)carbamate], the “inhibition of cellular GCS activity” value at GCS is reported as “significantly inhibits”. The IC50 in [2] (cellular inhibition assay) was 500 nM; in [2] (read-out: approximate IC50, me3-RCC1 and me3-SET, HEK293 cells), around 300 nM.

In general, inhibition refers to how much of the control response was suppressed. The low end stands for a weak effect, the high end for a strong effect. One may read the IC50 as the midpoint of a concentration-inhibition curve.
